Patent publication US7371766B2, “Curcumin analogs with anti-tumor and anti-angiogenic properties” (Emory University, priority 1999, dated 2008)

Assays:
HOP-92 = assay: cells; details: Homo sapiens, HOP-92, 48 h; for GI50: read-out: Median Growth Inhibitory Concentration (GI50); for CC50: read-out: Median Lethal Concentration (LC50)
CCRF-CEM = details: for GI50: read-out: Median Growth Inhibitory Concentration (GI50), Leukemia, 48 hours
HL-60 (TB) = details: for GI50: read-out: Median Growth Inhibitory Concentration (GI50), Leukemia, 48 hours
MOLT-4 = details: 48 hours; for GI50: read-out: Median Growth Inhibitory Concentration (GI50), MOLT-4, Leukemia
RPMI-8226 = details: 48 hours; for GI50: read-out: Median Growth Inhibitory Concentration (GI50), RPMI-8226, Leukemia
NCI-H226 = details: 48 hours; for GI50: read-out: Median Growth Inhibitory Concentration (GI50), NCI-H226, Non-Small Cell Lung Cancer
NCI-H23 = details: 48 hours; for GI50: read-out: Median Growth Inhibitory Concentration (GI50), NCI-H23, Non-Small Cell Lung Cancer
NCI-H460 = details: 48 hours; for GI50: read-out: Median Growth Inhibitory Concentration (GI50), NCI-H460, Non-Small Cell Lung Cancer
COLO 205 = details: 48 hours; for GI50: read-out: Median Growth Inhibitory Concentration (GI50), COLO 205, Colon Cancer
HCT-116 = details: 48 hours; for GI50: read-out: Median Growth Inhibitory Concentration (GI50), HCT-116, Colon Cancer
HCT-15 = details: 48 hours; for GI50: read-out: Median Growth Inhibitory Concentration (GI50), HCT-15, Colon Cancer
HT29 = details: 48 hours; for GI50: read-out: Median Growth Inhibitory Concentration (GI50), HT29, Colon Cancer
KM12 = details: 48 hours; for GI50: read-out: Median Growth Inhibitory Concentration (GI50), KM12, Colon Cancer
SW-620 = details: 48 hours; for GI50: read-out: Median Growth Inhibitory Concentration (GI50), SW-620, Colon Cancer
SF-539 = details: 48 hours; for GI50: read-out: Median Growth Inhibitory Concentration (GI50), SF-539, CNS Cancer
SNB-75 = details: 48 hours; for GI50: read-out: Median Growth Inhibitory Concentration (GI50), SNB-75, CNS Cancer
LOX IMVI = details: for GI50: read-out: Median Growth Inhibitory Concentration (GI50), Melanoma, 48 hours
MALME-3M = details: for GI50: read-out: Median Growth Inhibitory Concentration (GI50), Melanoma, 48 hours
M14 = details: 48 hours; for GI50: read-out: Median Growth Inhibitory Concentration (GI50), M14, Melanoma
SK-MEL-5 = details: 48 hours; for GI50: read-out: Median Growth Inhibitory Concentration (GI50), SK-MEL-5, Melanoma
IGROV1 = details: 48 hours; for GI50: read-out: Median Growth Inhibitory Concentration (GI50), IGROV1, Ovarian Cancer
OVCAR-5 = details: 48 hours; for GI50: read-out: Median Growth Inhibitory Concentration (GI50), OVCAR-5, Ovarian Cancer
OVCAR-8 = details: 48 hours; for GI50: read-out: Median Growth Inhibitory Concentration (GI50), OVCAR-8, Ovarian Cancer
SK-OV-3 = details: 48 hours; for GI50: read-out: Median Growth Inhibitory Concentration (GI50), SK-OV-3, Ovarian Cancer
786-0 = details: 48 hours; for GI50: read-out: Median Growth Inhibitory Concentration (GI50), 786-0, Renal Cancer
ACHN = details: for GI50: read-out: Median Growth Inhibitory Concentration (GI50), Renal Cancer, 48 hours
RXF 393 = details: 48 hours; for GI50: read-out: Median Growth Inhibitory Concentration (GI50), RXF 393, Renal Cancer
TK-10 = details: 48 hours; for GI50: read-out: Median Growth Inhibitory Concentration (GI50), TK-10, Renal Cancer
DU-145 = details: 48 hours; for GI50: read-out: Median Growth Inhibitory Concentration (GI50), DU-145, Prostate Cancer
HS 578T = details: for GI50: read-out: Median Growth Inhibitory Concentration (GI50), Breast Cancer, 48 hours
BT-549 = details: 48 hours; for GI50: read-out: Median Growth Inhibitory Concentration (GI50), BT-549, Breast Cancer
[1] = read-out: Median Lethal Concentration (LC50), Leukemia, 48 hours, SRB assay
[2] = read-out: Median Lethal Concentration (LC50), Melanoma, 48 hours, SRB assay

OC(CCc1ccc(F)cc1F)CCc1ccc(F)cc1F [EF19, 1,5-Bis(2,4-difluorophenyl)-pentan-3-ol]
GI50 (HOP-92): 17.5 µM | CC50 (HOP-92): 59.3 µM

O=C(C=Cc1ccc(F)cc1F)C=Cc1ccc(F)cc1F [EF9, 1,5-Bis(2,4-difluorophenyl)penta-1,4-dien-3-one]
GI50 (HOP-92): 16.3 µM | CC50 (HOP-92): 70.4 µM

CC1(/C=C/c2ccccc2O)C=Cc2ccccc2O1 (stereo not shown) [EF7]
GI50 (HOP-92): 12.7 µM | CC50 (HOP-92): 54.9 µM

CC(=O)O.O=C1C(=Cc2ccccc2F)CNCC1=Cc1ccccc1F [EF24, 3,5-Bis-(2-fluorobenzylidene)-piperidin-4-one-acetate]
GI50 (HOP-92): 3 µM | CC50 (HOP-92): 23.3 µM

O=C1C(=Cc2ccccc2O)COCC1=Cc1ccccc1O [EF25, 3,5-Bis(2-hyrdoxybenzylidene)tetrahydro4-H-pyran4-one]
GI50 (CCRF-CEM): 0.3 µM | CC50 (CCRF-CEM; [1]): > 100 µM | GI50 (HL-60 (TB)): 1.1 µM | CC50 (HL-60 (TB); [1]): > 100 µM | GI50 (MOLT-4): 0.4 µM | CC50 (MOLT-4; read-out: Median Lethal Concentration (LC50), Leukemia, MOLT-4, SRB assay): > 100 µM | GI50 (RPMI-8226): 0.2 µM | CC50 (RPMI-8226; read-out: Median Lethal Concentration (LC50), Leukemia, RPMI-8226, SRB assay): 70.9 µM | GI50 (NCI-H226): 2.2 µM | CC50 (NCI-H226; read-out: Median Lethal Concentration (LC50), Non-Small Cell Lung Cancer, NCI-H226, SRB assay): 58 µM | GI50 (NCI-H23): 1.7 µM | CC50 (NCI-H23; read-out: Median Lethal Concentration (LC50), Non-Small Cell Lung Cancer, NCI-H23, SRB assay): 12.9 µM | GI50 (NCI-H460): 1.2 µM | CC50 (NCI-H460; read-out: Median Lethal Concentration (LC50), Non-Small Cell Lung Cancer, NCI-H460, SRB assay): 38.9 µM | GI50 (COLO 205): 2 µM | CC50 (COLO 205; read-out: Median Lethal Concentration (LC50), Colon Cancer, COLO 205, SRB assay): 33.4 µM | GI50 (HCT-116): 0.8 µM | CC50 (HCT-116; read-out: Median Lethal Concentration (LC50), Colon Cancer, HCT-116, SRB assay): 11.1 µM | GI50 (HCT-15): 0.7 µM | CC50 (HCT-15; read-out: Median Lethal Concentration (LC50), Colon Cancer, HCT-15, SRB assay): 16.1 µM | GI50 (HT29): 2 µM | CC50 (HT29; read-out: Median Lethal Concentration (LC50), Colon Cancer, HT29, SRB assay): 67.5 µM | GI50 (KM12): 0.3 µM | CC50 (KM12; read-out: Median Lethal Concentration (LC50), Colon Cancer, KM12, SRB assay): 10.7 µM | GI50 (SW-620): 0.5 µM | CC50 (SW-620; read-out: Median Lethal Concentration (LC50), Colon Cancer, SW-620, SRB assay): 75.3 µM | GI50 (SF-539): 0.5 µM | CC50 (SF-539; read-out: Median Lethal Concentration (LC50), CNS Cancer, SF-539, SRB assay): 16.8 µM | GI50 (SNB-75): 1.8 µM | CC50 (SNB-75; read-out: Median Lethal Concentration (LC50), CNS Cancer, SNB-75, SRB assay): 14 µM | GI50 (LOX IMVI): 0.2 µM | CC50 (LOX IMVI; [2]): 3.6 µM | GI50 (MALME-3M): 1.9 µM | CC50 (MALME-3M; [2]): 19.3 µM | GI50 (M14): 1.8 µM | CC50 (M14; read-out: Median Lethal Concentration (LC50), Melanoma, M14, SRB assay): 19.4 µM | GI50 (SK-MEL-5): 1.5 µM | CC50 (SK-MEL-5; read-out: Median Lethal Concentration (LC50), Melanoma, SK-MEL-5, SRB assay): 6.6 µM | GI50 (IGROV1): 0.8 µM | CC50 (IGROV1; read-out: Median Lethal Concentration (LC50), Ovarian Cancer, IGROV1, SRB assay): 14.5 µM | GI50 (OVCAR-5): 1.7 µM | CC50 (OVCAR-5; read-out: Median Lethal Concentration (LC50), Ovarian Cancer, OVCAR-5, SRB assay): 8.4 µM | GI50 (OVCAR-8): 0.8 µM | CC50 (OVCAR-8; read-out: Median Lethal Concentration (LC50), Ovarian Cancer, OVCAR-8, SRB assay): 23 µM | GI50 (SK-OV-3): 2.4 µM | CC50 (SK-OV-3; read-out: Median Lethal Concentration (LC50), Ovarian Cancer, SK-OV-3, SRB assay): 26.9 µM | GI50 (786-0): 0.4 µM | CC50 (786-0; read-out: Median Lethal Concentration (LC50), Renal Cancer, 786-O, SRB assay): 32.6 µM | GI50 (ACHN): 1.5 µM | CC50 (ACHN; read-out: Median Lethal Concentration (LC50), Renal Cancer, 48 hours, SRB assay): 18.2 µM | GI50 (RXF 393): 0.6 µM | CC50 (RXF 393; read-out: Median Lethal Concentration (LC50), Renal Cancer, RXF 393, SRB assay): 4.6 µM | GI50 (TK-10): 2.2 µM | CC50 (TK-10; read-out: Median Lethal Concentration (LC50), Renal Cancer, TK-10, SRB assay): 24.6 µM | GI50 (DU-145): 1.2 µM | CC50 (DU-145; read-out: Median Lethal Concentration (LC50), Prostate Cancer, DU-145, SRB assay): 20.1 µM | GI50 (HS 578T): 5.1 µM | CC50 (HS 578T; read-out: Median Lethal Concentration (LC50), Breast Cancer, 48 hours, SRB assay): 72.3 µM | GI50 (BT-549): 1.5 µM | CC50 (BT-549; read-out: Median Lethal Concentration (LC50), Breast Cancer, BT-549, SRB assay): 13.6 µM

N.N.[Cl][Pt][Cl] [Cisplatin, reference compound]
GI50 (CCRF-CEM): 0.2 µM | GI50 (HL-60 (TB)): 0.1 µM | GI50 (MOLT-4): 0.3 µM | GI50 (RPMI-8226): 0.5 µM | GI50 (NCI-H226): 0.8 µM | GI50 (NCI-H23): 0.1 µM | GI50 (NCI-H460): 0.1 µM | GI50 (COLO 205): 4 µM | GI50 (HCT-116): 1.3 µM | GI50 (HCT-15): 1.6 µM | GI50 (HT29): 1.3 µM | GI50 (KM12): 2 µM | GI50 (SW-620): 0.8 µM | GI50 (SF-539): 0.4 µM | GI50 (SNB-75): 0.6 µM | GI50 (LOX IMVI): 0.3 µM | GI50 (MALME-3M): 0.2 µM | GI50 (M14): 0.3 µM | GI50 (SK-MEL-5): 0.5 µM | GI50 (IGROV1): 0.6 µM | GI50 (OVCAR-5): 1.3 µM | GI50 (OVCAR-8): 1 µM | GI50 (SK-OV-3): 1.3 µM | GI50 (786-0): 0.3 µM | GI50 (ACHN): 0.5 µM | GI50 (RXF 393): 0.8 µM | GI50 (TK-10): 1.3 µM | GI50 (DU-145): 0.4 µM | GI50 (HS 578T): 1.3 µM | GI50 (BT-549): 1.3 µM

3,5-Bis(2-hydroxybenzylidene)-sulfone [EF11]
GI50 (CCRF-CEM): 22 µM | GI50 (HL-60 (TB)): 21.3 µM | GI50 (MOLT-4): 19.7 µM | GI50 (RPMI-8226): 18.2 µM | GI50 (NCI-H226): > 100 µM | GI50 (NCI-H23): 35.8 µM | GI50 (NCI-H460): 30.7 µM | GI50 (COLO 205): 39.6 µM | GI50 (HCT-116): 36.8 µM | GI50 (HCT-15): 42.6 µM | GI50 (HT29): 45.9 µM | GI50 (KM12): 19.1 µM | GI50 (SW-620): 32.5 µM | GI50 (SF-539): 39.9 µM | GI50 (SNB-75): 20.3 µM | GI50 (LOX IMVI): 40.3 µM | GI50 (MALME-3M): 40.7 µM | GI50 (M14): 33.9 µM | GI50 (SK-MEL-5): 23.2 µM | GI50 (IGROV1): 35.9 µM | GI50 (OVCAR-5): 89.2 µM | GI50 (OVCAR-8): 47.1 µM | GI50 (SK-OV-3): > 100 µM | GI50 (786-0): 41.3 µM | GI50 (ACHN): 41 µM | GI50 (RXF 393): 39 µM | GI50 (TK-10): 41.2 µM | GI50 (DU-145): 29.9 µM | GI50 (HS 578T): 52.1 µM | GI50 (BT-549): 32.9 µM

O=C1C(=Cc2ccccc2O)CCCC1=Cc1ccccc1O [EF4, 2,6Bis(2-hydroxybenzylidene)cyclohexanone]
GI50 (HOP-92): 2.8 µM | CC50 (HOP-92): 41.4 µM
